pIC50: −log10 of the molar value.
Biological target: Pol Theta (1-894) (Homo sapiens (Human), UniProt O75417)
Experiment: Biochemical Pol Theta (1-894) ATPase IC50 assay (ADP-Glo, ssDNA substrate)
Conditions: ADP-Glo assay with ssDNA substrate, room temperature
Procedure: Baculovirus Expression of Human POL theta (1-894)
Human POL Theta (1-894)-His-pFastBac1 baculovirus samples were generated using the Bac-to-Bac baculovirus expression system (Invitrogen) according to the manufacturer's protocol. […] Baculovirus amplification was achieved using infected SF9 cells at 1:2000 virus/cells ratios, and grown for 96 hours at 27° C. post-transfection. The expression scaled up for each protein was carried out in the flask 3 L from CORNING. 4 L of 3×10^6 cells/mL Sf9 cells (Expression System, Invitrogen) grown in SF900TM II SFM insect medium (Expression System) were infected with virus stock at 1:200 virus/cell ratios, and grown for 48 hours at 27° C. post-transfection. The infected cell culture was harvested by centrifugation at 6000 rpm for 15 min 4° C. in a SORVALL LYNX6000 centrifuge. The cell pellets were stored at −80° C.
The human POL Theta (1-894)-His produced as described above, were purified from Sf9 baculovirus-infected insect cell paste. The cells were lysed using sonication method, and the lysates were clarified by centrifugation.
Enzymatic reactions of Pol Theta (1-894) were performed using ADP-Glo assay with ssDNA substrate. Pol Theta (1-894) was expressed in baculovirus expression system. The inhibition activities testing for the compound disclosed herein were carried out at room temperature in assay buffer containing 40 mM Tris pH 7.5, 20 mM MgCl2, 1 mM DTT, 0.01% BSA and 0.05% Tween-20. Compounds in DMSO were dispensed into wells of a black 384 well plate (Corning 4514) using D300e digital dispenser (Tecan). The ranges of compounds final concentration were 2.62 nM˜10000 nM. 3 μL 2× enzyme solution containing 12.5 nM enzyme was added to wells. […] After 1 hour reaction, 5 μL ADP-Glo reagent (Promga V9102) was added and incubated for 40 minutes. 10 μL Kinase Detection reagent was added and incubated for 40 minutes. Luminescence was measured on a microplate reader (PHERAstar FSX, BMG labtech). The IC50 values were calculated based on inhibition of enzyme activity in the presence of increasing concentrations of compounds.

Sequence of Pol Theta (1-894) (O75417 1-894): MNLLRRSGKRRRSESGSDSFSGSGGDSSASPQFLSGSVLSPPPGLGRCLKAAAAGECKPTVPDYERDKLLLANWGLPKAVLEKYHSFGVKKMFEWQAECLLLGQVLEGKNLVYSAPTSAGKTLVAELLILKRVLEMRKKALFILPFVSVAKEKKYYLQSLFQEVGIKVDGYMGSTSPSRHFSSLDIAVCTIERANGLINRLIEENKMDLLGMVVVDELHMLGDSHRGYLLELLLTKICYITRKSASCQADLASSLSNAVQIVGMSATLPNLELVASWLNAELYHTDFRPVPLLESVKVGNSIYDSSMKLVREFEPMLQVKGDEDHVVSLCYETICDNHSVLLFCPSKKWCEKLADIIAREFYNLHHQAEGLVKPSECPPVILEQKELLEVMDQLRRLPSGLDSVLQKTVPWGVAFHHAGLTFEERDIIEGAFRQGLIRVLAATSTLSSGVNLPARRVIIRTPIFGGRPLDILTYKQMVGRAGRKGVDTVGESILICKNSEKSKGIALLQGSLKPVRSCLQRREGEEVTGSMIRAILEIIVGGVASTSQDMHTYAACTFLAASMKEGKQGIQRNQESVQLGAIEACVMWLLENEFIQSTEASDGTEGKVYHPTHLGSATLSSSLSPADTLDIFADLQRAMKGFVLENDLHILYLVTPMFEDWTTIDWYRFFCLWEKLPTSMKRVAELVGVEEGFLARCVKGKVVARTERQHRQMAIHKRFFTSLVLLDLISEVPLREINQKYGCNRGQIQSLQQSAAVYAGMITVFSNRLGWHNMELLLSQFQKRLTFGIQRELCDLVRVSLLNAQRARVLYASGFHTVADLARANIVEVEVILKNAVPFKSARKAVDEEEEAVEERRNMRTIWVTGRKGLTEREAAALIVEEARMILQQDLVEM

| pIC50 | SMILES |
| --- | --- |
| 7.82 | COc1ccc(C#N)cc1-c1cc(C)ncc1C(=O)Nc1nc2ccc(-c3ccc(NC(=O)C(C)C)c(C)c3)nc2s1 [Example 51, 4-(5-cyano-2-methoxyphenyl)-N-(5-(4-isobutyramido-3-methylphenyl)thiazolo[5,4-b]pyridin-2-yl)-6-methylnicotinamide] |
| 8.08 | COc1ccc(S(C)(=O)=O)cc1-c1cc(C)ncc1C(=O)Nc1nc2ccc(-c3ccc(C#N)cc3)nc2s1 [Example 52, N-(5-(4-cyanophenyl)thiazolo[5,4-b]pyridin-2-yl)-4-(2-methoxy-5-(methylsulfonyl)phenyl)-6-methylnicotinamide] |
| 7.11 | Cc1cc(-c2ccccc2C#N)c(C(=O)Nc2nc3ccc(-c4ccc(C#N)cc4)nc3s2)cn1 [Example 53, 4-(2-cyanophenyl)-N-(5-(4-cyanophenyl)thiazolo[5,4-b]pyridin-2-yl)-6-methylnicotinamide] |
| 7.19 | Cc1cc(-c2ccc(=O)n(C)c2)c(C(=O)Nc2nc3ccc(-c4ccc(C#N)cc4)nc3s2)cn1 [Example 54, N-(5-(4-cyanophenyl)thiazolo[5,4-b]pyridin-2-yl)-1,6′-dimethyl-6-oxo-1,6-dihydro-[3,4′-bipyridine]-3′-carboxamide] |
| 8.30 | COc1ccccc1-c1cnncc1C(=O)Nc1nc2ccc(-c3ccc(Cl)cn3)nc2s1 [Example 55, N-(5-(5-chloropyridin-2-yl)thiazolo[5,4-b]pyridin-2-yl)-5-(2-methoxyphenyl)pyridazine-4-carboxamide] |
| 7.82 | COc1ccccc1-c1cnncc1C(=O)Nc1nc2ccc(-c3ccc(N(C)C(C)=O)cc3)nc2s1 [Example 56, 5-(2-methoxyphenyl)-N-(5-(4-(N-methylacetamido)phenyl)thiazolo[5,4-b]pyridin-2-yl)pyridazine-4-carboxamide] |
| 7.24 | COc1ccc(C2CC2)cc1-c1cc(C)ncc1C(=O)Nc1nc2ccc(-c3ccc(C#N)cc3)nc2s1 [Example 57, N-(5-(4-cyanophenyl)thiazolo[5,4-b]pyridin-2-yl)-4-(5-cyclopropyl-2-methoxyphenyl)-6-methylnicotinamide] |
| 7.00 | COc1ccc(C#N)cc1-c1cc(Cl)ncc1C(=O)Nc1nc2ccc(-c3ccc(N4CCOCC4)cc3)nc2s1 [Example 58, 6-chloro-4-(5-cyano-2-methoxyphenyl)-N-(5-(4-morpholinophenyl)thiazolo[5,4-b]pyridin-2-yl)nicotinamide] |
| 7.01 | COc1ccc(C#N)cc1-c1cc(C)ncc1C(=O)Nc1nc2ccc(-c3ccc(N4CCOCC4)cc3)nc2s1 [Example 59, 4-(5-cyano-2-methoxyphenyl)-6-methyl-N-(5-(4-morpholinophenyl)thiazolo[5,4-b]pyridin-2-yl)nicotinamide] |
| 6.44 | COc1ccc(C#N)cc1-c1cc(C)ncc1C(=O)Nc1nc2ccc(N3CCOCC3)nc2s1 [Example 60, 4-(5-cyano-2-methoxyphenyl)-6-methyl-N-(5-morpholinothiazolo[5,4-b]pyridin-2-yl)nicotinamide] |

The remaining lines, values behind:

| SMILES | pIC50 |
| --- | --- |
| COc1ccc(C#N)cc1-c1cc(C)ncc1C(=O)Nc1nc2ccc(-c3ccc(N(C)S(C)(=O)=O)cc3)nc2s1 [Example 32, 4-(5-cyano-2-methoxyphenyl)-6-methyl-N-(5-(4-(N-methylmethylsulfonamido)phenyl)thiazolo[5,4-b]pyridin-2-yl)nicotinamide] | 7.59 |
| COc1ccc(C#N)cc1-c1cc(Cl)ncc1C(=O)Nc1nc2ccc(-c3ccc(C#N)cc3)nc2s1 [Example 33, 6-chloro-4-(5-cyano-2-methoxyphenyl)-N-(5-(4-cyanophenyl)thiazolo[5,4-b]pyridin-2-yl)nicotinamide] | 8.07 |
| COc1ccc(C#N)cc1-c1cc(CC#N)ncc1C(=O)Nc1nc2ccc(-c3ccc(C#N)cc3)nc2s1 [Example 34, 4-(5-cyano-2-methoxyphenyl)-6-(cyanomethyl)-N-(5-(4-cyanophenyl)thiazolo[5,4-b]pyridin-2-yl)nicotinamide] | 7.80 |
| CCS(=O)(=O)Nc1ccc(-c2ccc3nc(NC(=O)c4cnc(C)cc4-c4cc(C#N)ccc4OC)sc3n2)cc1 [Example 35, 4-(5-cyano-2-methoxyphenyl)-N-(5-(4-(ethylsulfonamido)phenyl)thiazolo[5,4-b]pyridin-2-yl)-6-methylnicotinamide] | 7.03 |
| COc1ccc(C#N)cc1-c1cc(C#N)ncc1C(=O)Nc1nc2ccc(-c3ccc(NC(C)=O)cc3)nc2s1 [Example 36, N-(5-(4-acetamidophenyl)thiazolo[5,4-b]pyridin-2-yl)-6-cyano-4-(5-cyano-2-methoxyphenyl)nicotinamide] | 7.14 |
| COc1ccc(C#N)cc1-c1cc(C(F)(F)F)ncc1C(=O)Nc1nc2ccc(-c3ccc(C#N)cc3)nc2s1 [Example 37, 4-(5-cyano-2-methoxyphenyl)-N-(5-(4-cyanophenyl)thiazolo[5,4-b]pyridin-2-yl)-6-(trifluoromethyl)nicotinamide] | 6.82 |
| COc1ccc(C#N)cc1-c1ccncc1C(=O)Nc1nc2ccc(-c3ccc(C#N)cc3)nc2s1 [Example 38, 4-(5-cyano-2-methoxyphenyl)-N-(5-(4-cyanophenyl)thiazolo[5,4-b]pyridin-2-yl)nicotinamide] | 7.96 |
| COc1ccc(C#N)cc1-c1cc(F)ncc1C(=O)Nc1nc2ccc(-c3ccc(C#N)cc3)nc2s1 [Example 39, 4-(5-cyano-2-methoxyphenyl)-N-(5-(4-cyanophenyl)thiazolo[5,4-b]pyridin-2-yl)-6-fluoronicotinamide] | 7.14 |
| COc1ccc(C#N)cc1-c1cc(C)ncc1C(=O)Nc1nc2ccc(-c3ccc(C(F)(F)F)cc3)nc2s1 [Example 40, 4-(5-cyano-2-methoxyphenyl)-6-methyl-N-(5-(4-(trifluoromethyl)phenyl)thiazolo[5,4-b]pyridin-2-yl)nicotinamide] | 7.06 |
| CCC(=O)Nc1ccc(-c2ccc3nc(NC(=O)c4cnc(C)cc4-c4cc(C#N)ccc4OC)sc3n2)cc1 [Example 41, 4-(5-cyano-2-methoxyphenyl)-6-methyl-N-(5-(4-propionamidophenyl)thiazolo[5,4-b]pyridin-2-yl)nicotinamide] | 7.04 |
| COc1ccc(C#N)cc1-c1cc(C)ncc1C(=O)Nc1nc2ccc(-c3ccc(NC(=O)CO)cc3)nc2s1 [Example 42, 4-(5-cyano-2-methoxyphenyl)-N-(5-(4-(2-hydroxyacetamido)phenyl)thiazolo[5,4-b]pyridin-2-yl)-6-methylnicotinamide] | 7.19 |
| COc1ccc(C#N)cc1-c1cc(C)ncc1C(=O)Nc1nc2ccc(-c3ccc(N4CCOC4=O)cc3)nc2s1 [Example 43, 4-(5-cyano-2-methoxyphenyl)-6-methyl-N-(5-(4-(2-oxooxazolidin-3-yl)phenyl)thiazolo[5,4-b]pyridin-2-yl)nicotinamide] | 7.12 |
| COc1ccc(C#N)cc1-c1cc(C)ncc1C(=O)Nc1nc2ccc(-c3ccc(CO)cc3)nc2s1 [Example 44, 4-(5-cyano-2-methoxyphenyl)-N-(5-(4-(hydroxymethyl)phenyl)thiazolo[5,4-b]pyridin-2-yl)-6-methylnicotinamide] | 7.85 |
| COc1ccc(C#N)cc1-c1cc(C)ncc1C(=O)Nc1nc2ccc(-c3ccc(N4CCCC4=O)cc3)nc2s1 [Example 45, 4-(5-cyano-2-methoxyphenyl)-6-methyl-N-(5-(4-(2-oxopyrrolidin-1-yl)phenyl)thiazolo[5,4-b]pyridin-2-yl)nicotinamide] | 7.49 |
| COc1ccccc1-c1cc(C(=O)O)ncc1C(=O)Nc1nc2ccc(-c3ccc(NC(C)=O)cc3)nc2s1 [Example 46, 5-((5-(4-acetamidophenyl)thiazolo[5,4-b]pyridin-2-yl)carbamoyl)-4-(2-methoxyphenyl)picolinic acid] | 6.89 |
| COc1ccccc1-c1cnncc1C(=O)Nc1nc2ccc(-c3ccn[nH]3)nc2s1 [Example 47, N-(5-(1H-pyrazol-5-yl)thiazolo[5,4-b]pyridin-2-yl)-5-(2-methoxyphenyl)pyridazine-4-carboxamide] | 7.00 |
| COc1ccccc1-c1cnncc1C(=O)Nc1nc2ccc(-c3ccc(NS(C)(=O)=O)cc3)nc2s1 [Example 48, 5-(2-methoxyphenyl)-N-(5-(4-(methylsulfonamido)phenyl)thiazolo[5,4-b]pyridin-2-yl)pyridazine-4-carboxamide] | 8.02 |
| COc1ccc(OC)c(-c2cc(C)ncc2C(=O)Nc2nc3ccc(-c4ccc(C#N)cc4)nc3s2)c1 [Example 49, N-(5-(4-cyanophenyl)thiazolo[5,4-b]pyridin-2-yl)-4-(2,5-dimethoxyphenyl)-6-methylnicotinamide] | 6.82 |
| COc1ccc(C#N)cc1-c1cc(C)ncc1C(=O)Nc1nc2ccc(-c3ccc(NC(=O)C(C)C)cc3)nc2s1 [Example 50, 4-(5-cyano-2-methoxyphenyl)-N-(5-(4-isobutyramidophenyl)thiazolo[5,4-b]pyridin-2-yl)-6-methylnicotinamide] | 6.66 |
